Laboratory results published in PubChem BioAssay (NCI).
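Following 48 hours of exposure in 96-well plates, responses at five concentrations were used to interpolate endpoints linearly. At the GI50, growth is halved. TGI: concentration producing complete growth inhibition.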

Tests used:
Assay in all cases: growth of human tumour cells (NCI), 48 h
[1] = test system: NCI-H522 lung
[2] = test system: NCI-H23 lung
[3] = test system: SK-MEL-5 melanoma
[4] = test system: KM12 colon
[5] = test system: COLO 205 colon
[6] = test system: UACC-62 melanoma
[7] = test system: ACHN renal
[8] = test system: HL-60(TB) leukemia
[9] = test system: MOLT-4 leukemia
[10] = test system: T-47D breast

| Compound | TGI [1] [µM] | TGI [2] [µM] | TGI [3] [µM] | TGI [4] [µM] | TGI [5] [µM] | TGI [6] [µM] | TGI [7] [µM] | TGI [8] [µM] | TGI [9] [µM] | GI50 [1] [µM] | GI50 [9] [µM] | GI50 [10] [µM] | TGI [10] [µM] | GI50 [2] [µM] | GI50 [3] [µM] | GI50 [4] [µM] | GI50 [5] [µM] | GI50 [7] [µM] | GI50 [8] [µM] | GI50 [6] [µM] |
| --- | --- | --- | --- | --- | --- | --- | --- | --- | --- | --- | --- | --- | --- | --- | --- | --- | --- | --- | --- | --- |
| S=C=NCCc1ccccc1 | 0.58 | 1.31 | 1.39 | 1.48 | 3.07 | 2.52 | 3 | 2.65 |  |  |  |  |  |  |  |  |  |  |  |  |
| COC1OC(C)C2OC(C)(C)OC2C1OC(C)=O (centres undefined) | > 100 | > 100 | > 100 | > 100 | > 100 | > 100 | > 100 | > 100 | > 100 |  |  |  |  |  |  |  |  |  |  |  |
| CC1=C(C)C2(O)C(=C(C)C1=O)/C(=C(/O)c1ccccc1)c1nc3ccccc3n12 (centres undefined) | 44.2 | 29.9 | 31.3 | 37.6 | 31.3 |  | 34.4 | 56.7 | 72.3 | 19.6 | 24.6 | 14.5 | 33.1 | 15 | 16.6 | 17.6 | 17.2 | 16.4 | 18.3 |  |
| O=c1cc(-c2ccccc2)oc2cc(OC/C(=N/O)c3ccc(F)cc3)ccc12 | > 50 | > 50 | 21.1 | 29.2 | > 50 | > 50 | > 50 | > 50 | > 50 | 14.9 | > 50 | 25.5 | > 50 | 31.8 | 8.75 | 11.3 | 26.1 | 19.2 | 19 | 14.8 |
| Cn1c(=S)c2[nH]c(SCCN3C(=O)c4ccccc4C3=O)nc2n(C)c1=O | > 100 | > 100 | > 100 | > 100 | > 100 | > 100 | > 100 | > 100 | > 100 |  |  |  | > 100 |  |  |  |  |  |  |  |
| COc1cc(-n2ccnc2)cc(OC)c1OC | > 100 | > 100 | > 100 | > 100 | > 100 | > 100 | > 100 |  | > 100 | 60.6 | 42.2 | > 100 | > 100 | > 100 | 59 | 43.2 | > 100 | 34.6 |  | 36 |
| COc1ccc(/C=C\c2cc(OC)c(OC)c(OC)c2)cc1OCC(=O)Nc1ccc2nc(C)sc2c1 | 7.06 | 7.95 | 5.14 | 14.8 | 16.2 | 5.16 | 10.9 |  | 5.68 | 2.28 | 2.11 | 9.41 | 33.8 | 2.53 | 1.97 | 3.79 | 4.4 | 3.12 |  | 2.19 |
| Cc1ccc(-c2nc([P+](c3ccccc3)(c3ccccc3)c3ccccc3)c(Nc3ccccc3)o2)cc1 | 1.15 | 1.28 | 1.48 | 1.83 | 2.78 | 1.93 | 2.22 | 1.3 | 2.06 | 0.259 | 0.477 |  |  | 0.344 | 0.406 | 0.519 | 0.995 | 1.04 | 0.395 | 0.63 |
| c1ccc(P(=C2c3ccccc3-c3ccccc32)(c2ccccc2)c2ccccc2)cc1 | 4.62 | 9.97 | 3.96 | 5.58 | 15 | 14.1 | 9.82 | 4.36 |  |  |  |  |  |  |  |  |  |  |  |  |
| COc1ccc(N(/C=C/C(=O)C(F)(F)F)CC(=O)c2ccc(Cl)cc2)cc1 | 30 | 35 | 29.5 | 32.8 | 40.7 | 20.7 | 27.6 |  | 55.5 | 12.7 | 15.4 | 21.9 | > 100 | 15.3 | 15 | 11.7 | 18.6 | 14.5 |  | 8.34 |
| COc1ccc(Nc2nc3cc(N)cc(N)c3nc2-c2ccccc2)cc1OC | > 100 | 80.1 | 25.5 | 32 | 41.2 | 27.4 | > 100 |  | > 100 | 28.9 | 6.91 | 14.4 | 38.2 | 26.3 | 12.2 | 14.8 | 19.8 | 27.4 |  | 13.4 |
| O=C(C/C(CCC(=O)N(Cc1ccccc1)Cc1ccccc1)=N/Nc1ccc([N+](=O)[O-])cc1[N+](=O)[O-])c1ccccc1 | > 100 | > 100 |  | > 100 | > 100 | > 100 |  | > 100 | 73.9 |  |  |  |  |  |  |  |  |  |  |  |
| CC[N+](C)(CC)CC(C)(C)C(=O)/C=C/c1ccc(/C=C/C(=O)C(C)(C)C[N+](C)(CC)CC)cc1 | > 100 | > 100 | > 100 | > 100 | > 100 | > 100 | > 100 | > 100 | > 100 |  |  |  |  |  |  |  |  |  |  |  |
| C=C1C(=O)O[C@H]2[C@H]1CC/C(COC(=O)NCCc1c[nH]c3ccc(Cl)cc13)=C\CC[C@@]1(C)O[C@@H]21 | 3.35 | 3.49 | 3.33 | 7.32 | 3.59 | 3.07 | 2.88 |  | 5.27 | 1.69 | 1.71 |  |  | 1.79 | 1.83 | 2.64 | 1.85 | 1.54 |  | 1.61 |
| Cc1nc2sccn2c1C(=O)NC(=O)Nc1ccc(Cl)cc1 | > 100 | > 100 | > 100 | > 100 | > 100 | > 100 | > 100 | > 100 | > 100 |  |  |  |  |  |  |  |  |  |  |  |
